Laboratory results: patent US20250032457A1, “METHODS OF TREATING ANDROGENIC ALOPECIA AND/OR SKIN CONDITIONS” (priority 2020, published 2025)

System: scalp of a human subject (hairline recession, hair loss and thinning)
Experiment: Topical administration to the scalp of a human subject with hairline recession, hair loss and thinning
Settings: 2% miconazole nitrate formulation, twice per day, observed after 3 months, one human subject, FIG. 2 vs FIG. 1
Text: Hairline recession, hair thinning, and hair loss were observed prior to administration.

Clc1ccc(COC(Cn2ccnc2)c2ccc(Cl)cc2Cl)c(Cl)c1 (centres unmarked) [miconazole]
hairline recession (topical on scalp): reversal of hairline recession | hair growth on the scalp: promotion of hair growth elsewhere on the scalp
